Measurements as given in US20230096766A1, “AMINO ACID HAVING FUNCTIONAL GROUP CAPABLE OF INTERMOLECULAR HYDROGEN BONDING, PEPTIDE COMPOUND CONTAINING SAME AND METHOD FOR PRODUCTION THEREOF” (Chugai Seiyaku Kabushiki Kaisha, priority 2018, published 2023).
*1 amine or outer side, *2 acyl side, *3 side chain or, on linkers, in order; H or OH if unused. Where a SMILES comes first, the peptide text is derived from it. Bridges are numbered along the chain shown (N, C = ends). [ ]: non-standard residue; d: D form. The star is where a group is joined. ξ: configuration not given here. X12 = O=C([C@H](CCCC(O)C(F)(F)F)N[*:1])[*:2]; X13 = O=C(C1CCCCC1)[C@H](CC(=O)[*:2])N[*:1]; Pro(4,4-F2)ψ(CH2) = FC1(F)CN[C@H](C*)C1; NMeF = CN[C@@H](Cc1ccccc1)C(=O)O; NMeGABA = CN(CCCC(=O)[*:2])[*:1]; CH2CH(OH)CF3 = OC(C*)C(F)(F)F; NMeL = CN[C@@H](CC(C)C)C(=O)O; ξIle = CC[C@H](C)C(N)C(=O)O; NMeAbu = CC[C@H](NC)C(=O)O; Piperidide = C1CCN(*)CC1; NBuGly = CCCCNCC(=O)O; ξNMeA = CNC(C)C(=O)O; ξV = CC(C)C(N)C(=O)O; Sar = CNCC(=O)O; tBu = CC(C)(C)*

Assay: Membrane permeability test of cyclic peptides (Caco-2, modified/improved method of WO 2018/124162)
Conditions: human, Caco-2, Caco-2 (membrane permeability), Table 6, cyclic peptides containing Ser(1-CF3-EtOH) (C) or Hnl(7-F3-6-OH) (D)

Compound | Papp [×10⁻⁶ cm/s]
CC(C)C[C@H]1C(=O)N[C@@H](COC(C)(C)C)C(=O)N(C)[C@@H](Cc2ccccc2)C(=O)N(C)[C@@H](CC(C)C)C(=O)N[C@H](C(=O)N2CCCCC2)CC(=O)N[C@H](C(C)C)C(=O)N(C)[C@@H](Cc2ccccc2)C(=O)N[C@@H](COCC(O)C(F)(F)F)C(=O)N(C)[C@@H](CC(C)C)C(=O)NC(C(C)C)C(=O)N(C)CC(=O)N1C (stereo partly drawn) [Compound C11] ([dV][NMeF]S(CH2CH(OH)CF3)[NMeL][ξV][Sar][NMeL]S(tBu)[NMeF][NMeL]D-Piperidide; lactam N-11) | 0.23
CC[C@H](C)[C@@H]1NC(=O)[C@H](CC(C)C)N(C)C(=O)[C@H](COC(C)(C)C)NC(=O)[C@H](Cc2ccccc2)N(C)C(=O)[C@H](Cc2ccccc2)N(C)C(=O)[C@H](COCC(O)C(F)(F)F)NC(=O)[C@H](CC)N(C)C(=O)CCCN(C)C(=O)C[C@@H](C(=O)N2CCCCC2)NC(=O)[C@H](CC(C)C)N(C)C(=O)[C@H](CC(C)C)N(C)C1=O (stereo partly drawn) [Compound C13] ([NMeGABA][NMeAbu]S(CH2CH(OH)CF3)[NMeF][NMeF]S(tBu)[NMeL]I[NMeL][NMeL]D-Piperidide; lactam N-11) | 0.26
CC(C)C[C@H]1C(=O)N[C@@H](COC(C)(C)C)C(=O)N(C)[C@@H](Cc2ccccc2)C(=O)N(C)[C@@H](CC(C)C)C(=O)N[C@H](C(=O)C2CCCCC2)CC(=O)N[C@H](C(C)C)C(=O)N(C)[C@@H](Cc2ccccc2)C(=O)N[C@@H](COCC(O)C(F)(F)F)C(=O)N(C)[C@@H](CC(C)C)C(=O)N[C@@H](C(C)C)C(=O)N(C)CC(=O)N1C (stereo partly shown) [Compound D11] (cyclo([NMeF][NMeL][X13][dV][NMeF]S(CH2CH(OH)CF3)[NMeL]V[Sar][NMeL]S(tBu))) | 0.21
CC(C)C[C@H]1C(=O)N[C@@H](C(C)C)C(=O)N(C)[C@@H](Cc2ccccc2)C(=O)N(C)[C@@H](Cc2ccccc2)C(=O)N[C@@H](COC(C)(C)C)C(=O)N(C)[C@@H](CC(C)C)C(=O)N[C@@H](CCCC(O)C(F)(F)F)C(=O)N(C)[C@@H](CC(C)C)C(=O)N(C)[C@@H](CC(C)C)C(=O)N[C@H](C(=O)N2CCCCC2)CC(=O)N(C)CCCC(=O)N1C (stereo partly drawn) [Compound D12] ([NMeGABA][NMeL]V[NMeF][NMeF]S(tBu)[NMeL][X12][NMeL][NMeL]D-Piperidide; lactam N-11) | 0.13
CC[C@H](C)[C@@H]1NC(=O)[C@H](CC(C)C)N(C)C(=O)[C@H](COC(C)(C)C)NC(=O)[C@H](Cc2ccccc2)N(C)C(=O)[C@H](Cc2ccccc2)N(C)C(=O)[C@H](CCCC(O)C(F)(F)F)NC(=O)[C@H](CC)N(C)C(=O)CCCN(C)C(=O)C[C@@H](C(=O)N2CCCCC2)NC(=O)[C@H](CC(C)C)N(C)C(=O)[C@H](CC(C)C)N(C)C1=O (stereo partly drawn) [Compound D13] ([NMeGABA][NMeAbu][X12][NMeF][NMeF]S(tBu)[NMeL]I[NMeL][NMeL]D-Piperidide; lactam N-11) | 0.14

Same assay, conditions: human, Caco-2, Caco-2 (membrane permeability), Table 10, cyclic peptides containing Ser(S-4-F2-Pyrro-Me) (G) or Nva(2-R-4-F2-Pyrro) (H)

Compound | Papp [×10⁻⁶ cm/s]
CCCCN1CC(=O)N(C)[C@@H](CC(C)C)C(=O)N[C@@H](COC[C@@H]2CC(F)(F)CN2)C(=O)N(C)[C@@H](CC(C)C)C(=O)N(C)[C@@H](CC(C)C)C(=O)N[C@H](C(=O)N2CCCCC2)CC(=O)N[C@H](C(C)C)C(=O)N(C)[C@@H](Cc2ccccc2)C(=O)N[C@@H](CC(C)C)C(=O)N(C)[C@@H](CC)C(=O)N[C@@H]([C@@H](C)O)C1=O [Compound G01] ([dV][NMeF]L[NMeAbu]T[NBuGly][NMeL]S(Pro(4,4-F2)ψ(CH2))[NMeL][NMeL]D-Piperidide; lactam N-11) | 0.53
CCCCN1CC(=O)N(C)[C@@H](CC)C(=O)N[C@@H](COC[C@@H]2CC(F)(F)CN2)C(=O)N(C)[C@@H](Cc2ccccc2)C(=O)N(C)[C@@H](CC)C(=O)N[C@H](C(=O)N2CCCCC2)CC(=O)N[C@H](CC(C)C)C(=O)N(C)[C@@H](CC(C)C)C(=O)N[C@@H](C(C)C)C(=O)N(C)[C@@H](CC(C)C)C(=O)N[C@@H]([C@@H](C)O)C1=O [Compound G02] ([dL][NMeL]V[NMeL]T[NBuGly][NMeAbu]S(Pro(4,4-F2)ψ(CH2))[NMeF][NMeAbu]D-Piperidide; lactam N-11) | 0.4
CC[C@H](C)[C@@H]1NC(=O)[C@H](CC(C)C)N(C)C(=O)CCCN(C)C(=O)C[C@@H](C(=O)N2CCCCC2)NC(=O)[C@H](CC(C)C)N(C)C(=O)[C@H](CC(C)C)N(C)C(=O)[C@H]([C@@H](C)O)NC(=O)[C@H](CC(C)C)N(C)C(=O)[C@H](COC[C@@H]2CC(F)(F)CN2)NC(=O)[C@H](CC(C)C)N(C)C(=O)[C@H](Cc2ccccc2)N(C)C1=O [Compound G03] ([NMeGABA][NMeL]I[NMeF][NMeL]S(Pro(4,4-F2)ψ(CH2))[NMeL]T[NMeL][NMeL]D-Piperidide; lactam N-11) | 0.23
CCCCN1CC(=O)N(C)[C@@H](CC(C)C)C(=O)N[C@H](C(=O)N2CCCCC2)CC(=O)N(C)[C@@H](CC)C(=O)N[C@@H](CC(C)C)C(=O)N(C)[C@@H](CC(C)C)C(=O)N(C)[C@@H](Cc2ccccc2)C(=O)N[C@@H](COC[C@@H]2CC(F)(F)CN2)C(=O)N(C)[C@@H](CC)C(=O)N(C)[C@@H](CC(C)C)C(=O)N[C@@H]([C@@H](C)O)C1=O [Compound G04] ([NMeAbu]L[NMeL][NMeF]S(Pro(4,4-F2)ψ(CH2))[NMeAbu][NMeL]T[NBuGly][NMeL]D-Piperidide; lactam N-11) | 1.8
CCCCN1CC(=O)N(C)[C@@H](CC(C)C)C(=O)N[C@H](C(=O)N2CCCCC2)CC(=O)N(C)C(C)C(=O)N[C@@H](COC[C@@H]2CC(F)(F)CN2)C(=O)N(C)[C@@H](CC(C)C)C(=O)N(C)[C@@H](CC)C(=O)N[C@@H](C(C)C)C(=O)N(C)[C@@H](Cc2ccccc2)C(=O)N(C)[C@@H](CC(C)C)C(=O)N[C@@H]([C@@H](C)O)C1=O (stereo partly drawn) [Compound G05] ([ξNMeA]S(Pro(4,4-F2)ψ(CH2))[NMeL][NMeAbu]V[NMeF][NMeL]T[NBuGly][NMeL]D-Piperidide; lactam N-11) | 3.2
CCCCN1CC(=O)N(C)[C@@H](Cc2ccccc2)C(=O)N(C)[C@@H](CC(C)C)C(=O)N[C@@H](C(C)C)C(=O)N(C)[C@@H](CC(C)C)C(=O)N[C@H](C(=O)N2CCCCC2)CC(=O)N(C)CC(=O)N(C)[C@@H](CC(C)C)C(=O)N[C@@H](COC[C@@H]2CC(F)(F)CN2)C(=O)N(C)[C@@H](CC(C)C)C(=O)N[C@@H]([C@@H](C)O)C1=O [Compound G06] ([Sar][NMeL]S(Pro(4,4-F2)ψ(CH2))[NMeL]T[NBuGly][NMeF][NMeL]V[NMeL]D-Piperidide; lactam N-11) | 1.8
CCCCN1CC(=O)N(C)[C@@H](Cc2ccccc2)C(=O)N(C)[C@@H](CC(C)C)C(=O)N[C@@H](COC[C@@H]2CC(F)(F)CN2)C(=O)N(C)[C@@H](CC(C)C)C(=O)N[C@H](C(=O)N2CCCCC2)CC(=O)N(C)CC(=O)N(C)[C@@H](CC(C)C)C(=O)NC([C@@H](C)CC)C(=O)N(C)[C@@H](CC(C)C)C(=O)N[C@@H]([C@@H](C)O)C1=O (stereo partly drawn) [Compound G07] ([Sar][NMeL][ξIle][NMeL]T[NBuGly][NMeF][NMeL]S(Pro(4,4-F2)ψ(CH2))[NMeL]D-Piperidide; lactam N-11) | 0.57
CCCCN1CC(=O)N(C)[C@@H](CC(C)C)C(=O)N[C@@H](COC(C)(C)C)C(=O)N(C)[C@@H](Cc2ccccc2)C(=O)N(C)[C@@H](CC)C(=O)N[C@H](C(=O)N2CCCCC2)CC(=O)N[C@H](C)C(=O)N(C)[C@@H](CC)C(=O)N[C@@H](C(C)C)C(=O)N(C)[C@@H](CC(C)C)C(=O)N[C@@H](COC[C@@H]2CC(F)(F)CN2)C1=O [Compound G08] ([dA][NMeAbu]V[NMeL]S(Pro(4,4-F2)ψ(CH2))[NBuGly][NMeL]S(tBu)[NMeF][NMeAbu]D-Piperidide; lactam N-11) | 1.3
